Consider nine molecules from patent EP4786487A1, “PEPTIDE” (Peptidream Inc, priority 2023, dated 2025).

Where two headings read alike, the source gives them in different places. Starred links: 1 amine or outer side, 2 acyl side, 3 side chain; linkers in the order of their positions; H or OH if unused. Positions of bridges follow the written chain, without caps; N, C: chain ends. Non-standard residues stand in square brackets, D forms with d. Residues, ends and D or L forms follow the SMILES beside them. Groups on a side chain read outwards from the residue. *: point of attachment. Phe(3-OCH2COOH) = N[C@@H](Cc1cccc(OCC(=O)O)c1)C(=O)O; Piperidine(4-CH2CH2CONH2) = NC(=O)CCC1CCN(*)CC1; Phe(4-COOH) = N[C@@H](Cc1ccc(C(=O)O)cc1)C(=O)O; Piperazinyl(4-CH2COOH) = O=C(O)CN1CCN(*)CC1; Piperidinyl(4-CH2COOH) = O=C(O)CC1CCN(*)CC1; Gly(N(CH2)3COOH) = O=C(O)CCCNCC(=O)O; X1 = CCCCCCC[C@H](N[*:1])C(=O)[*:2]; NMeF = CN[C@@H](Cc1ccccc1)C(=O)O; dAad = N[C@H](CCCC(=O)O)C(=O)O; dNMeC = CN[C@H](CS)C(=O)O; NMeA = CN[C@@H](C)C(=O)O; X9 = NC(=O)CC1CCN(*)CC1; CO = O=C([*:1])[*:2]; Inp = O=C(O)C1CCNCC1; Sar = CNCC(=O)O

One assay addresses T1, GDF-11 (Homo sapiens, UniProt O95390).
T1 construct: purchased R&D systems 1958-GD-G8/CF
T1 sequence (O95390 299-407): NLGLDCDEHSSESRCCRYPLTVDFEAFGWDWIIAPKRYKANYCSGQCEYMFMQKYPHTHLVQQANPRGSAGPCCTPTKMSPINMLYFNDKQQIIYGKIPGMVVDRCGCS
As to the kind of experiment: HepG2 reporter gene assay, Evaluation Procedure (2): 2-concentrations assay, GDF-11 inhibition. Type of assay: cell-based. To be noted: read-out: inhibition rate (GDF-11 inhibition assay). Summed up:
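HepG2 cells carrying the transfected pGL3(CAGA)12-luc reporter, a pGL3 vector with luciferase placed downstream of 12 CAGA repeats, were stimulated with GDF-11 at a final 10 ng/mL together with test peptide. Blank wells received no GDF-11 and no peptide. Plates were incubated 20 to 24 hours at 37°C with 5% CO2. Luminescence from One-Glo substrate was read to calculate percent inhibition.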
Background: In a reporter assay the amount or activity of a reporter protein is the signal.

In the next assay the target is T2, Myostatin (Homo sapiens, UniProt O14793).
T2 construct: active myostatin (also called mature myostatin) is a homodimer consisting of two C-terminal growth factor domains; purchased R&D systems 788-G8/CF
T2 sequence (O14793 267-375): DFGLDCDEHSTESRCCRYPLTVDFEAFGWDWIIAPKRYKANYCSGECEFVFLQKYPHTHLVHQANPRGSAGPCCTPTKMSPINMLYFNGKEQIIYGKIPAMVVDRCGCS
Nature of the assay: HepG2 reporter gene assay, Evaluation Procedure (2): 2-concentrations assay, myostatin inhibition. Type of assay: cell-based. To be noted: Table 7-3/7-4, myostatin 10 ng/mL, HepG2, read-out: inhibition rate (myostatin inhibition assay); for inhibition at 0.1 µM: peptide at the higher of the 2 concentrations; for inhibition at 0.03 µM: peptide at the lower of the 2 concentrations. Summed up:
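Myostatin inhibition was measured in a luciferase reporter assay using HepG2 cells transfected with a pGL3 vector containing 12 CAGA repeats upstream of luciferase. After 20 to 24 hours with 10 ng/mL myostatin, cells received One-Glo:PBS (1:1) at 100 µL/well, were shaken for 5 min, and 20 µL/well was moved to 384-well plates and read on an Envision 2104.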

Where [1] appears, read: HepG2, first GDF-11 column of Table 7-3/7-4, GDF-11 10 ng/mL, peptide at the lower of the 2 concentrations.
Setting [2] is: HepG2, second GDF-11 column of Table 7-3/7-4, GDF-11 10 ng/mL, peptide at the higher of the 2 concentrations.

As usually defined, the inhibition is how much of the control response was suppressed.

As to `CCCCCCC[C@@H]1NC(=O)[C@H](Cc2ccccc2)N(C)C(=O)[C@H](CCCNC(=N)N)NC(=O)[C@H](Cc2ccc(C(=O)O)cc2)NC(=O)[C@H](Cc2cccc(OCC(=O)O)c2)NC(=O)CN(C)C(=O)[C@H]([C@@H](C)CC)NC(=O)[C@H](Cc2ccccc2)N(C)C(=O)[C@H](Cc2ccc(O)cc2)NC(=O)[C@H](Cc2c[nH]c3ccccc23)NC(=O)[C@H](C)NC(=O)[C@H](C)NC(=O)CSC[C@H](C(=O)N[C@@H](CCCCNC(=O)N2CCN(CC(=O)O)CC2)C(=O)O)NC(=O)[C@H](Cc2ccccc2)N(C)C(=O)[C@H](C)N(C)C1=O` [Myostatin_99_v427] ({CH2CO}-AAWY[NMeF]I[Sar][Phe(3-OCH2COOH)][Phe(4-COOH)]R[NMeF][X1][NMeA][NMeF][dC]K([CO-Piperazinyl(4-CH2COOH)])-OH; thioether N-15), the inhibition on GDF-11 (setting [1]) was found to be 0%. In addition, the inhibition at GDF-11 (setting [2]) was found to be 0%. Further, at Myostatin, the inhibition at 0.1 µM was 100% and the inhibition at 0.03 µM was 98%.

As for `CCCCCCC[C@@H]1NC(=O)[C@H](Cc2ccccc2)N(C)C(=O)[C@H](CCCNC(=N)N)NC(=O)[C@H](Cc2ccc(C(=O)O)cc2)NC(=O)[C@H](Cc2cccc(OCC(=O)O)c2)NC(=O)[C@H](C)N(C)C(=O)[C@H]([C@@H](C)CC)NC(=O)[C@H](Cc2ccccc2)N(C)C(=O)[C@H](Cc2ccc(O)cc2)NC(=O)[C@H](Cc2c[nH]c3ccccc23)NC(=O)[C@H](C)NC(=O)CN(CCCC(=O)O)C(=O)CSC[C@H](C(=O)N[C@@H](CCCCNC(=O)N2CCN(CC(=O)O)CC2)C(=O)O)NC(=O)[C@H](Cc2ccccc2)N(C)C(=O)[C@H](C)N(C)C1=O` [Myostatin_99_v428] ({CH2CO}-[Gly(N(CH2)3COOH)]AWY[NMeF]I[NMeA][Phe(3-OCH2COOH)][Phe(4-COOH)]R[NMeF][X1][NMeA][NMeF][dC]K([CO-Piperazinyl(4-CH2COOH)])-OH; thioether N-15), the inhibition on GDF-11 (setting [1]) and on GDF-11 (setting [2]) was 0% in each case. Also, on Myostatin, the inhibition at 0.1 µM is 99%. Besides, the inhibition at 0.03 µM at Myostatin came out at 96%.

`CCCCCCC[C@@H]1NC(=O)[C@H](Cc2ccccc2)N(C)C(=O)[C@H](CCCNC(=N)N)NC(=O)[C@H](Cc2ccc(C(=O)O)cc2)NC(=O)[C@H](Cc2cccc(OCC(=O)O)c2)NC(=O)[C@H](C)N(C)C(=O)[C@H]([C@@H](C)CC)NC(=O)[C@H](Cc2ccccc2)N(C)C(=O)[C@H](Cc2ccc(O)cc2)NC(=O)[C@H](Cc2c[nH]c3ccccc23)NC(=O)[C@H](C)NC(=O)CN(CCCC(=O)O)C(=O)CSC[C@H](C(=O)N2CCN(CC(=O)O)CC2)NC(=O)[C@H](Cc2ccccc2)N(C)C(=O)[C@H](C)N(C)C1=O` [Myostatin_99_v429] ({CH2CO}-[Gly(N(CH2)3COOH)]AWY[NMeF]I[NMeA][Phe(3-OCH2COOH)][Phe(4-COOH)]R[NMeF][X1][NMeA][NMeF][dC]-{Piperazinyl(4-CH2COOH)}; thioether N-15): the inhibition on GDF-11 (setting [1]) came to 0%. Further, at GDF-11 (setting [2]), the inhibition was determined as 0%. In addition, on Myostatin, the inhibition at 0.1 µM is 100% and the inhibition at 0.03 µM amounted to 100%.

Consider `CCCCCCC[C@@H]1NC(=O)[C@H](Cc2ccccc2)N(C)C(=O)[C@H](CCCNC(=N)N)NC(=O)[C@H](Cc2ccc(C(=O)O)cc2)NC(=O)[C@H](Cc2cccc(OCC(=O)O)c2)NC(=O)[C@H](C)N(C)C(=O)[C@H]([C@@H](C)CC)NC(=O)[C@H](Cc2ccccc2)N(C)C(=O)[C@H](Cc2ccc(O)cc2)NC(=O)[C@H](Cc2c[nH]c3ccccc23)NC(=O)[C@H](C)NC(=O)CN(CCCC(=O)O)C(=O)CSC[C@H](C(=O)N2CCC(CC(=O)O)CC2)NC(=O)[C@H](Cc2ccccc2)N(C)C(=O)[C@H](C)N(C)C1=O` [Myostatin_99_v430] ({CH2CO}-[Gly(N(CH2)3COOH)]AWY[NMeF]I[NMeA][Phe(3-OCH2COOH)][Phe(4-COOH)]R[NMeF][X1][NMeA][NMeF][dC]-{Piperidinyl(4-CH2COOH)}; thioether N-15), for which, on GDF-11 (setting [1]), the inhibition stood at 0%. Also, the inhibition at GDF-11 (setting [2]) turned out to be 0%. Further, on Myostatin, the inhibition at 0.1 µM came out at 100% and the inhibition at 0.03 µM stood at 100%.

Turning to `CCCCCCC[C@@H]1NC(=O)[C@H](Cc2ccccc2)N(C)C(=O)[C@H](CCCNC(=N)N)NC(=O)[C@H](Cc2ccc(C(=O)O)cc2)NC(=O)[C@H](Cc2cccc(OCC(=O)O)c2)NC(=O)[C@H](C)N(C)C(=O)[C@H]([C@@H](C)CC)NC(=O)[C@H](Cc2ccccc2)N(C)C(=O)[C@H](Cc2ccc(O)cc2)NC(=O)[C@H](Cc2c[nH]c3ccccc23)NC(=O)[C@H](C)NC(=O)CN(CCCC(=O)O)C(=O)CSC[C@H](C(=O)N2CCC(CCC(N)=O)CC2)NC(=O)[C@H](Cc2ccccc2)N(C)C(=O)[C@H](C)N(C)C1=O` [Myostatin_99_v431] ({CH2CO}-[Gly(N(CH2)3COOH)]AWY[NMeF]I[NMeA][Phe(3-OCH2COOH)][Phe(4-COOH)]R[NMeF][X1][NMeA][NMeF][dC]-{Piperidine(4-CH2CH2CONH2)}; thioether N-15), on GDF-11 (setting [1]), the inhibition is 0%. Moreover, on GDF-11 (setting [2]), the inhibition was 0%. For the same molecule, on Myostatin, the inhibition at 0.1 µM was found to be 100% and the inhibition at 0.03 µM worked out at 100%.

As to `CCCCCCC[C@@H]1NC(=O)[C@H](Cc2ccccc2)N(C)C(=O)[C@H](CCCNC(=N)N)NC(=O)[C@H](Cc2ccc(C(=O)O)cc2)NC(=O)[C@H](Cc2cccc(OCC(=O)O)c2)NC(=O)[C@H](C)N(C)C(=O)[C@H]([C@@H](C)CC)NC(=O)[C@H](Cc2ccccc2)N(C)C(=O)[C@H](Cc2ccc(O)cc2)NC(=O)[C@H](Cc2c[nH]c3ccccc23)NC(=O)[C@H](C)NC(=O)CN(CCCC(=O)O)C(=O)CSC[C@H](C(=O)N2CCC(CC(N)=O)CC2)NC(=O)[C@H](Cc2ccccc2)N(C)C(=O)[C@H](C)N(C)C1=O` [Myostatin_99_v432] ({CH2CO}-[Gly(N(CH2)3COOH)]AWY[NMeF]I[NMeA][Phe(3-OCH2COOH)][Phe(4-COOH)]R[NMeF][X1][NMeA][NMeF][dC]-X9; thioether N-15), at GDF-11 (setting [1]), the inhibition is 0%. The inhibition at GDF-11 (setting [2]) was 0%. On Myostatin, the inhibition at 0.1 µM was found to be 100% and the inhibition at 0.03 µM came out at 100%.

Regarding `CCCCCCC[C@@H]1NC(=O)[C@H](Cc2ccccc2)N(C)C(=O)[C@H](CCCNC(=N)N)NC(=O)[C@H](Cc2ccc(C(=O)O)cc2)NC(=O)[C@H](Cc2cccc(OCC(=O)O)c2)NC(=O)[C@H](C)N(C)C(=O)[C@H]([C@@H](C)CC)NC(=O)[C@H](Cc2ccccc2)N(C)C(=O)[C@H](Cc2ccc(O)cc2)NC(=O)[C@H](Cc2c[nH]c3ccccc23)NC(=O)[C@H](C)NC(=O)CN(CCCC(=O)O)C(=O)CSC[C@H](C(=O)N2CCC(C(N)=O)CC2)NC(=O)[C@H](Cc2ccccc2)N(C)C(=O)[C@H](C)N(C)C1=O` [Myostatin_99_v433] ({CH2CO}-[Gly(N(CH2)3COOH)]AWY[NMeF]I[NMeA][Phe(3-OCH2COOH)][Phe(4-COOH)]R[NMeF][X1][NMeA][NMeF][dC][Inp]-NH2; thioether N-15), at GDF-11 (setting [1]), the inhibition is 0%. At GDF-11 (setting [2]), the inhibition is 0%. For the same molecule, on Myostatin, the inhibition at 0.1 µM turned out to be 100% and the inhibition at 0.03 µM came to 100%.

Take `CCCCCCC[C@@H]1NC(=O)[C@H](Cc2ccccc2)N(C)C(=O)[C@H](CCCNC(=N)N)NC(=O)[C@H](Cc2ccc(C(=O)O)cc2)NC(=O)[C@H](Cc2cccc(OCC(=O)O)c2)NC(=O)[C@H](C)N(C)C(=O)[C@H]([C@@H](C)CC)NC(=O)[C@H](Cc2ccccc2)N(C)C(=O)[C@H](Cc2ccc(O)cc2)NC(=O)[C@H](Cc2c[nH]c3ccccc23)NC(=O)[C@H](C)NC(=O)CN(CCCC(=O)O)C(=O)CCC[C@H](C(=O)O)NC(=O)[C@H](Cc2ccccc2)N(C)C(=O)[C@H](C)N(C)C1=O` [Myostatin_99_v434] ([Gly(N(CH2)3COOH)]AWY[NMeF]I[NMeA][Phe(3-OCH2COOH)][Phe(4-COOH)]R[NMeF][X1][NMeA][NMeF][dAad]-OH; lactam N-15): at GDF-11 (setting [1]), the inhibition came to 0%. The inhibition on GDF-11 (setting [2]) was 0%. On Myostatin, the inhibition at 0.1 µM is 100% and the inhibition at 0.03 µM was determined as 98%.

Turning to `CCCCCCC[C@@H]1NC(=O)[C@H](Cc2ccccc2)N(C)C(=O)[C@H](CCCNC(=N)N)NC(=O)[C@H](Cc2ccc(C(=O)O)cc2)NC(=O)[C@H](Cc2cccc(OCC(=O)O)c2)NC(=O)[C@H](C)N(C)C(=O)[C@H]([C@@H](C)CC)NC(=O)[C@H](Cc2ccccc2)N(C)C(=O)[C@H](Cc2ccc(O)cc2)NC(=O)[C@H](Cc2c[nH]c3ccccc23)NC(=O)[C@H](C)NC(=O)CN(CCCC(=O)O)C(=O)CSC[C@H](C(N)=O)N(C)C(=O)[C@H](Cc2ccccc2)N(C)C(=O)[C@H](C)N(C)C1=O` [Myostatin_99_v439] ({CH2CO}-[Gly(N(CH2)3COOH)]AWY[NMeF]I[NMeA][Phe(3-OCH2COOH)][Phe(4-COOH)]R[NMeF][X1][NMeA][NMeF][dNMeC]-NH2; thioether N-15), the inhibition at GDF-11 (setting [1]) amounted to 2%. Moreover, the inhibition on GDF-11 (setting [2]) worked out at 36%. On Myostatin, the inhibition at 0.1 µM stood at 100% and the inhibition at 0.03 µM was 100%.
